From patent publication US20090221642A1, “MUSCARINIC RECEPTOR AGONISTS, COMPOSITIONS, METHODS OF TREATMENT THEREOF, AND PROCESSES FOR PREPARATION THEREOF-176” (AstraZeneca AB, priority 2008, published 2009)

Columns and labels:
[1] = target: T1, cloned human M2 receptor (human Muscarinic receptor subtype 2) (Homo sapiens, UniProt P08172); assay: hM2 receptor GTPγS binding; type: biochemical; details: CHO cell membranes expressing hM2; [35S]GTPγS binding; read-out: hM2 EC50
T1 construct: purchased Perkin-Elmer RBHM2M; host or cells: Chinese hamster ovary cells (CHO) membranes
T1 sequence (P08172 1-466): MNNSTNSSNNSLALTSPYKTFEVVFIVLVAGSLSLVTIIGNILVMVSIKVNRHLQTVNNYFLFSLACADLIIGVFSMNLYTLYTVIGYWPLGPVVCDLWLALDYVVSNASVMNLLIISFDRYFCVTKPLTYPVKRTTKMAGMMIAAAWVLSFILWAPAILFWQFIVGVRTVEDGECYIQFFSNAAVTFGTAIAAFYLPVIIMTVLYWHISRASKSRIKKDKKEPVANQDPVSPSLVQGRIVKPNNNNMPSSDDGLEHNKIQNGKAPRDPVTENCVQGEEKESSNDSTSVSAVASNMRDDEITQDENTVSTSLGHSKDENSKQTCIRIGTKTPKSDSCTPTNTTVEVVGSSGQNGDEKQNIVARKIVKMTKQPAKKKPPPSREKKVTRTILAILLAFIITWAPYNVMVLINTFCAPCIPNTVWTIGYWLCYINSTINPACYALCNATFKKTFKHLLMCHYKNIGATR
Experimental: hM2 Receptor GTPγS Binding
Membranes produced from Chinese hamster ovary cells (CHO) expressing the cloned human M2 receptor (human Muscarinic receptor subtype 2, gene bank access NM_000739), are obtained from Perkin-Elmer (RBHM2M). The membranes are thawed at 37° C., passed 3 times through a 23-gauge blunt-end needle, diluted in the GTPγS binding buffer (50 mM Hepes, 20 mM NaOH, 100 mM NaCl, 1 mM EDTA, 5 mM MgCl2, pH 7.4, 100 μM DTT). The EC50, IC50 and Emax of the compounds of the invention are evaluated from 10-point dose-response curves (three fold concentration range) done in 60 μl in 384-well non-specific binding surface plate (Corning). Ten microliters from the dose-response curves plate (5× concentration) are transferred to another 384 well plate containing 25 μl of the following: 5 μg of hM2 membranes, 500 μg of Flashblue beads (Perkin-Elmer) and GDP 25 μM. An additional 15 μl containing 3.3× (60,000 dpm) of GTPγ^35S (0.4 nM final) are added to the wells resulting in a total well volume of 50 μl. Basal and maximal stimulated [^35S]GTPγS binding are determined in absence and presence of 30 μM final of acetylcholine agonist. The membranes/beads mix are pre-incubated for 15 minutes at room temperature with 25 μM GDP prior to distribution in plates (12.5 μM final). The reversal of acetylcholine-induced stimulation (2 μM final) of [^35S]GTPγS binding is used to assay the antagonist properties (IC50) of the compounds. The plates are incubated for 60 minutes at room temperature then centrifuged at 400 rpm for 5 minutes. The radioactivity (cpm) is counted in a Trilux (Perkin-Elmer).
(§1) Values of EC50, IC50 and Emax are obtained using sigmoidal fits of a non-linear curve-fitting program (XLfit version 4.2.2 Excel add-in version 4.2.2 build 18 math 1Q version 2.1.2 build 18) of percent stimulated [^35S]GTPγS binding vs. log(molar ligand). All pEC50 and plC50 values are reported as arithmetic means ±standard error of mean of ‘n’ independent experiments.

[2] = target: T2, cloned human M4 receptor (human Muscarinic receptor subtype 4) (Homo sapiens, UniProt P08173); assay: hM4 receptor GTPγS binding; type: biochemical; details: CHO cell membranes expressing hM4; [35S]GTPγS binding; read-out: hM4 EC50
T2 construct: purchased Perkin-Elmer RBHM4M; host or cells: Chinese hamster ovary cells (CHO) membranes
T2 sequence (P08173 1-479): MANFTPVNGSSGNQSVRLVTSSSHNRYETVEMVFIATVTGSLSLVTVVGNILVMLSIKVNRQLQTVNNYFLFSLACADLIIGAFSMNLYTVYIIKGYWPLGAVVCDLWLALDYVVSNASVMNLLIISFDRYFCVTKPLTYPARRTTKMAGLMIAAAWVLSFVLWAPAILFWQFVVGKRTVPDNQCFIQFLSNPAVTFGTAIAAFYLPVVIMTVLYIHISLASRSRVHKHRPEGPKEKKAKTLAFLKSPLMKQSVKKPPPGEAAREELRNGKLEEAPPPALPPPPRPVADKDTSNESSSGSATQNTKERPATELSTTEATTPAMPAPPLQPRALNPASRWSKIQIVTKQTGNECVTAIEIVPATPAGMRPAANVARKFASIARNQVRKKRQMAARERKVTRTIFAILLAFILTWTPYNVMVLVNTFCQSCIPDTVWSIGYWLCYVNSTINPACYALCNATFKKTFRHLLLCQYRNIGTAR
Experimental: hM4 Receptor GTPγS Binding
Membranes produced from Chinese hamster ovary cells (CHO) expressing the cloned human M4 receptor (human Muscarinic receptor subtype 4, gene bank access NM_000741), are obtained from Perkin-Elmer (RBHM4M). The membranes are thawed at 37° C., passed 3 times through a 23-gauge blunt-end needle, diluted in the GTPγS binding buffer (50 mM Hepes, 20 mM NaOH, 100 mM NaCl, 1 mM EDTA, 5 mM MgCl2, pH 7.4, 100 μM DTT). The EC50, IC50 and Emax of the compounds of the invention are evaluated from 10-point dose-response curves (three fold concentration range) done in 60 μl in 384-well non-specific binding surface plate (Corning). Ten microliters from the dose-response curves plate (5× concentration) are transferred to another 384 well plate containing 25 μl of the following: 10 μg of hM4 membranes, 500 μg of Flashblue beads (Perkin-Elmer) and GDP 40 μM. An additional 15 μl containing 3.3× (60,000 dpm) of GTPγ^35S (0.4 nM final) are added to the wells resulting in a total well volume of 50 μl. Basal and maximal stimulated [^35S]GTPγS binding are determined in absence and presence of 30 μM final of acetylcholine agonist. The membranes/beads mix are pre-incubated for 15 minutes at room temperature with 40 μM GDP prior to distribution in plates (20 μM final). The reversal of acetylcholine-induced stimulation (10 μM final) of [^35S]GTPγS binding is used to assay the antagonist properties (IC50) of the compounds. The plates are incubated for 60 minutes at room temperature then centrifuged at 400 rpm for 5 minutes. The radioactivity (cpm) is counted in a Trilux (Perkin-Elmer).
as §1

Row | SMILES | EC50 [1] [nM] | EC50 [2] [nM]
1 | CC1(N2CCC(n3c(=O)[nH]c4ccccc43)CC2)CCN(C(=O)OCCF)C1 (single isomer, unassigned) [Example 31, 2-fluoroethyl 3-methyl-3-(4-(2-oxo-2,3-dihydro-1H-benzo[d]imidazol-1-yl)piperidin-1-yl)pyrrolidine-1-carboxylate] | 997 | 1190
2 | CC1(N2CCC(n3c(=O)[nH]c4ccccc43)CC2)CCN(C(=O)OCCF)C1 (single isomer, unassigned) [Example 32, 2-fluoroethyl 3-methyl-3-(4-(2-oxo-2,3-dihydro-1H-benzo[d]imidazol-1-yl)piperidin-1-yl)pyrrolidine-1-carboxylate] | 5840 | 33700
3 | CC#CCOC(=O)N1CCC(C)(N2CCC(n3c(=O)[nH]c4ccccc43)CC2)C1 (single isomer, unassigned) [Example 33, but-2-ynyl 3-methyl-3-(4-(2-oxo-2,3-dihydro-1H-benzo[d]imidazol-1-yl)piperidin-1-yl)pyrrolidine-1-carboxylate] | 104 | 316
4 | CC#CCOC(=O)N1CCC(C)(N2CCC(n3c(=O)[nH]c4ccccc43)CC2)C1 (single isomer, unassigned) [Example 34, but-2-ynyl 3-methyl-3-(4-(2-oxo-2,3-dihydro-1H-benzo[d]imidazol-1-yl)piperidin-1-yl)pyrrolidine-1-carboxylate] | 897 | 1670
5 | C#CCOC(=O)N1CCC(C)(N2CCC(n3c(=O)[nH]c4cc(F)ccc43)CC2)C1 (single isomer, unassigned) [Example 36, prop-2-ynyl 3-(4-(5-fluoro-2-oxo-2,3-dihydro-1H-benzo[d]imidazol-1-yl)piperidin-1-yl)-3-methylpyrrolidine-1-carboxylate] | 1560 | 6830
6 | Cc1ccc2[nH]c(=O)n(C3CCN(C4(C)CCN(C(=O)OC(C)C)C4)CC3)c2c1 (single isomer, unassigned) [Example 39, isopropyl 3-methyl-3-(4-(6-methyl-2-oxo-2,3-dihydro-1H-benzo[d]imidazol-1-yl)piperidin-1-yl)pyrrolidine-1-carboxylate] | > 12800 | > 90000
7 | Cc1ccc2[nH]c(=O)n(C3CCN(C4(C)CCN(C(=O)OC(C)C)C4)CC3)c2c1 (single isomer, unassigned) [Example 40, isopropyl 3-methyl-3-(4-(6-methyl-2-oxo-2,3-dihydro-1H-benzo[d]imidazol-1-yl)piperidin-1-yl)pyrrolidine-1-carboxylate] | 2810 | > 22300
8 | C#CCOC(=O)N1CCC(C)(N2CCC(n3c(=O)[nH]c4ccc(C)cc43)CC2)C1 (single isomer, unassigned) [Example 41, prop-2-ynyl 3-methyl-3-(4-(6-methyl-2-oxo-2,3-dihydro-1H-benzo[d]imidazol-1-yl)piperidin-1-yl)pyrrolidine-1-carboxylate] | 2210 | 8800
9 | C#CCOC(=O)N1CCC(C)(N2CCC(n3c(=O)[nH]c4ccc(C)cc43)CC2)C1 (single isomer, unassigned) [Example 43, prop-2-ynyl 3-methyl-3-(4-(6-methyl-2-oxo-2,3-dihydro-1H-benzo[d]imidazol-1-yl)piperidin-1-yl)pyrrolidine-1-carboxylate] | 109 | 460
10 | C#CCOC(=O)N1CCC(C)(N2CCC(n3c(=O)[nH]c4cc(C)ccc43)CC2)C1 (single isomer, unassigned) [Example 44, prop-2-ynyl 3-methyl-3-(4-(5-methyl-2-oxo-2,3-dihydro-1H-benzo[d]imidazol-1-yl)piperidin-1-yl)pyrrolidine-1-carboxylate] | 26 | 107
11 | COC(=O)N1CCC(C)(N2CCC(n3c(=O)[nH]c4ccc(C)cc43)CC2)C1 (single isomer, unassigned) [Example 45, methyl 3-methyl-3-(4-(6-methyl-2-oxo-2,3-dihydro-1H-benzo[d]imidazol-1-yl)piperidin-1-yl)pyrrolidine-1-carboxylate] | 1640 | 11200
12 | COC(=O)N1CCC(C)(N2CCC(n3c(=O)[nH]c4ccc(C)cc43)CC2)C1 (single isomer, unassigned) [Example 47, methyl 3-methyl-3-(4-(6-methyl-2-oxo-2,3-dihydro-1H-benzo[d]imidazol-1-yl)piperidin-1-yl)pyrrolidine-1-carboxylate] | 127 | 907
13 | COC(=O)N1CCC(C)(N2CCC(n3c(=O)[nH]c4cc(C)ccc43)CC2)C1 (single isomer, unassigned) [Example 48, methyl 3-methyl-3-(4-(5-methyl-2-oxo-2,3-dihydro-1H-benzo[d]imidazol-1-yl)piperidin-1-yl)pyrrolidine-1-carboxylate] | 571 | 3480
14 | CCOC(=O)N1CCC(C)(N2CCC(n3c(=O)[nH]c4ccc(F)cc43)CC2)C1 (single isomer, unassigned) [Example 49, ethyl 3-(4-(6-fluoro-2-oxo-2,3-dihydro-1H-benzo[d]imidazol-1-yl)piperidin-1-yl)-3-methylpyrrolidine-1-carboxylate] | 4550 | 9480
15 | CCOC(=O)N1CCC(C)(N2CCC(n3c(=O)[nH]c4ccc(F)cc43)CC2)C1 (single isomer, unassigned) [Example 50, ethyl 3-(4-(6-fluoro-2-oxo-2,3-dihydro-1H-benzo[d]imidazol-1-yl)piperidin-1-yl)-3-methylpyrrolidine-1-carboxylate] | 498 | 2020
16 | COC(=O)N1CCC(C)(N2CCC(n3c(=O)[nH]c4ccc(F)cc43)CC2)C1 (single isomer, unassigned) [Example 52, methyl 3-(4-(6-fluoro-2-oxo-2,3-dihydro-1H-benzo[d]imidazol-1-yl)piperidin-1-yl)-3-methylpyrrolidine-1-carboxylate] | 1240 | 5090
